In patent publication US20070082339A1, “Methods and compositions for screening for HDAC inhibitory activity” (priority 2005, published 2007):

Tested on: A549 cells
Assay: Microarray analysis of gene expression after LAQ824 treatment
Assay type: cell-based, human
Details: for Fold change AMP-activated protein kinase family member 5 (ARK5) 204589_at / Fold change ANP32B acidic (leucine-rich) nuclear phosphoprotein 32 family, member B (SSP29) 201305_x_at / Fold change AVEN apoptosis, caspase activation inhibitor (Aven) 219366_at / Fold change B-cell CLL/lymphoma 3 (BCL3) 204908_s_at / Fold change BAI1-associated protein 2 (BAP2, IRSp53) 205293_x_at / Fold change BAI1-associated protein 3 (BAP3, KIAA0734) 204874_x_at / Fold change BAI1-associated protein 3 (BAP3, KIAA0734) 216356_x_at / Fold change BCL2-associated athanogene 2 (BAG-2) 209406_at / Fold change BCL2-interacting killer (apoptosis-inducing) (BP4, NBK, BIP1) 205780_at / Fold change BCL2-like 1 (BCL2L1) 206665_s_at / Fold change BH3 interacting domain death agonist (BID) 204493_at / Fold change Cyclin A2 (CCN1, CCNA) 203418_at / Fold change Cyclin-dependent kinase inhibitor 2D (p19, inhibits CDK4) (INK4D) 210240_s_at / Fold change DEC1-anti apoptosis (BHLHB2) 201169_s_at / Fold change Diphtheria toxin receptor (heparin-binding epidermal growth factor-like growth factor) (DTR) 203821_at / Fold change Early growth response 1 (TIS8, NGFI-A, KROX-24, ZIF-268) 201694_s_at / Fold change GMCL germ cell-less homolog (Drosophila) (GMCL) 218458_at / Fold change Katanin p80 (WD40-containing) subunit B 1 (KAT) 203163_at / Fold change NACHT, leucine rich repeat and PYD containing 1 (PP1044) 218380_at / Fold change Paternally expressed Gene 10 (PEG10) 212092_at / Fold change Paternally expressed Gene 10 (PEG10) 212094_at / Fold change Protein regulator of cytokinesis 1 (PRC1) 218009_s_at / Fold change SKAP55 protein 216899_s_at / Fold change Secreted frizzled-related protein 1 (FRP, SARP2) 202036_s_at / Fold change Secreted frizzled-related protein 1 (FRP, SARP2) 202037_s_at / Fold change Serine/threonine kinase 6 (AIK) 208079_s_at / Fold change Tribbles homolog 3a (TRIB3) 218145_at / Fold change Tumor necrosis factor receptor superfamily, member 6 (TNFRSF6) 215719_x_at / Fold change Tumor necrosis factor receptor superfamily, member 6 (TNFRSF6) 216252_x_at / Fold change Tumor protein p53 (Li-Fraumeni syndrome) 201746_at / Fold change Tumor protein p53 (Li-Fraumeni syndrome) 211300_s_at / Fold change member of the N-myc downregulated gene family (NDRG4) 209159_s_at: A549, 500 nM vs DMSO
Description: The human lung carcinoma cell line A549 is obtained from the American Type Culture Collection (Rockville, Md.) and cultured in F-12K (ATCC, Manassas, Va.), 10% fetal bovine serum, and 1% penicillin/streptomycin (Life Technologies, Inc.). LAQ824 (Novartis) is added directly to the cell medium at a final concentration of 500 nM. Microarray analysis is performed essentially as described previously (Welsh, 2001). Total RNA is prepared from A549 cells treated with LAQ 824 or DMSO for 0.5, 2, 6, 12 and 24 h. Labelled cDNA is prepared and hybridized to Affymetrix U133 oligonucleotide GeneChip® (Affymetrix, Santa Clara, Calif.). The arrays were scanned on an Affymetrix GeneArray scanner and analyzed with GENECHIP Microarray Analysis Suite 5.0 software (MAS5) (Affymetrix). The data (raw data including image files and scanner files (Cel. Files) as well as the MAS5 normalized data are stored in the DEMON Database. The MAS5 normalized data are exported from the database and analyzed using GeneSpring software version 6.1. The genes are filtered for a minimal expression of 100 in at least one condition (the condition being defined as the average the value for the 3 samples corresponding to a given time point and a treatement) The gene expression changes (fold change) are calculated for each time point (t) as follow: (Gene expression level LAQ824 treated—(Average of the 3 replicates) Time (t))/(Gene expression level DMSO treated—(Average of the 3 replicates) Time (t)).
Any fold change <0 indicated a down regulation or reduction of the mRNA production, any fold change >0 indicated an up regulation or increase of mRNA production. Genes are filtered according to the fold change and the statistical significance of the changes (1-way-ANOVA test p<0.05)).

O=C(/C=C/c1ccc(CN(CCO)CCc2c[nH]c3ccccc23)cc1)NO [LAQ824, N-Hydroxy-3-[4-[[(2-hydroxyethyl)[2-(1H-indol-3-yl)-ethyl]-amino]methyl]phenyl]-2E-2-propenamide]
Fold change AMP-activated protein kinase family member 5 (ARK5) 204589_at (12 h): −4.6 fold
Fold change ANP32B acidic (leucine-rich) nuclear phosphoprotein 32 family, member B (SSP29) 201305_x_at (12 h): −5.1 fold
Fold change AVEN apoptosis, caspase activation inhibitor (Aven) 219366_at (12 h): −2.6 fold
Fold change B-cell CLL/lymphoma 3 (BCL3) 204908_s_at (12 h): −5.5 fold
Fold change BAI1-associated protein 2 (BAP2, IRSp53) 205293_x_at (12 h): 6.8 fold
Fold change BAI1-associated protein 3 (BAP3, KIAA0734) 204874_x_at (12 h): 15.9 fold
Fold change BAI1-associated protein 3 (BAP3, KIAA0734) 216356_x_at (12 h): 27.9 fold
Fold change BCL2-associated athanogene 2 (BAG-2) 209406_at (12 h): −3.3 fold
Fold change BCL2-interacting killer (apoptosis-inducing) (BP4, NBK, BIP1) 205780_at (12 h): 12.0 fold
Fold change BCL2-like 1 (BCL2L1) 206665_s_at (12 h): −7.6 fold
Fold change BH3 interacting domain death agonist (BID) 204493_at (12 h): −3.6 fold
Fold change Cyclin A2 (CCN1, CCNA) 203418_at (12 h): −2.3 fold
Fold change Cyclin-dependent kinase inhibitor 2D (p19, inhibits CDK4) (INK4D) 210240_s_at (12 h): 4.8 fold
Fold change DEC1-anti apoptosis (BHLHB2) 201169_s_at (12 h): −4.8 fold
Fold change Diphtheria toxin receptor (heparin-binding epidermal growth factor-like growth factor) (DTR) 203821_at (12 h): 13.1 fold
Fold change Early growth response 1 (TIS8, NGFI-A, KROX-24, ZIF-268) 201694_s_at (12 h): 11.2 fold
Fold change GMCL germ cell-less homolog (Drosophila) (GMCL) 218458_at (12 h): 3.8 fold
Fold change Katanin p80 (WD40-containing) subunit B 1 (KAT) 203163_at (12 h): 4.3 fold
Fold change NACHT, leucine rich repeat and PYD containing 1 (PP1044) 218380_at (12 h): 11.3 fold
Fold change Paternally expressed Gene 10 (PEG10) 212092_at (12 h): 3.8 fold
Fold change Paternally expressed Gene 10 (PEG10) 212094_at (12 h): 3.5 fold
Fold change Protein regulator of cytokinesis 1 (PRC1) 218009_s_at (12 h): −2.5 fold
Fold change SKAP55 protein 216899_s_at (12 h): 1.8 fold
Fold change Secreted frizzled-related protein 1 (FRP, SARP2) 202036_s_at (12 h): 3.9 fold
Fold change Secreted frizzled-related protein 1 (FRP, SARP2) 202037_s_at (12 h): 3.9 fold
Fold change Serine/threonine kinase 6 (AIK) 208079_s_at (12 h): −2.4 fold
Fold change Tribbles homolog 3a (TRIB3) 218145_at (12 h): −4.0 fold
Fold change Tumor necrosis factor receptor superfamily, member 6 (TNFRSF6) 215719_x_at (12 h): −6.3 fold
Fold change Tumor necrosis factor receptor superfamily, member 6 (TNFRSF6) 216252_x_at (12 h): −4.9 fold
Fold change Tumor protein p53 (Li-Fraumeni syndrome) 201746_at (12 h): −4.4 fold
Fold change Tumor protein p53 (Li-Fraumeni syndrome) 211300_s_at (12 h): −3.7 fold
Fold change member of the N-myc downregulated gene family (NDRG4) 209159_s_at (12 h): 7.3 fold
Fold change AMP-activated protein kinase family member 5 (ARK5) 204589_at (24 h): −1.9 fold
Fold change ANP32B acidic (leucine-rich) nuclear phosphoprotein 32 family, member B (SSP29) 201305_x_at (24 h): −7.3 fold
Fold change AVEN apoptosis, caspase activation inhibitor (Aven) 219366_at (24 h): −8.2 fold
Fold change B-cell CLL/lymphoma 3 (BCL3) 204908_s_at (24 h): −1.8 fold
Fold change BAI1-associated protein 2 (BAP2, IRSp53) 205293_x_at (24 h): 3.6 fold
Fold change BAI1-associated protein 3 (BAP3, KIAA0734) 204874_x_at (24 h): 10.9 fold
Fold change BAI1-associated protein 3 (BAP3, KIAA0734) 216356_x_at (24 h): 19.2 fold
Fold change BCL2-associated athanogene 2 (BAG-2) 209406_at (24 h): −4.4 fold
Fold change BCL2-interacting killer (apoptosis-inducing) (BP4, NBK, BIP1) 205780_at (24 h): 15.5 fold
Fold change BCL2-like 1 (BCL2L1) 206665_s_at (24 h): −2.0 fold
Fold change BH3 interacting domain death agonist (BID) 204493_at (24 h): −4.6 fold
Fold change Cyclin A2 (CCN1, CCNA) 203418_at (24 h): −13.3 fold
Fold change Cyclin-dependent kinase inhibitor 2D (p19, inhibits CDK4) (INK4D) 210240_s_at (24 h): 2.0 fold
Fold change DEC1-anti apoptosis (BHLHB2) 201169_s_at (24 h): −1.9 fold
Fold change Diphtheria toxin receptor (heparin-binding epidermal growth factor-like growth factor) (DTR) 203821_at (24 h): 3.2 fold
Fold change Early growth response 1 (TIS8, NGFI-A, KROX-24, ZIF-268) 201694_s_at (24 h): 4.6 fold
Fold change GMCL germ cell-less homolog (Drosophila) (GMCL) 218458_at (24 h): 2.3 fold
Fold change Katanin p80 (WD40-containing) subunit B 1 (KAT) 203163_at (24 h): 2.9 fold
Fold change NACHT, leucine rich repeat and PYD containing 1 (PP1044) 218380_at (24 h): 22.7 fold
Fold change Paternally expressed Gene 10 (PEG10) 212092_at (24 h): 7.0 fold
Fold change Paternally expressed Gene 10 (PEG10) 212094_at (24 h): 6.5 fold
Fold change Protein regulator of cytokinesis 1 (PRC1) 218009_s_at (24 h): −5.1 fold
Fold change SKAP55 protein 216899_s_at (24 h): 4.0 fold
Fold change Secreted frizzled-related protein 1 (FRP, SARP2) 202036_s_at (24 h): 4.5 fold
Fold change Secreted frizzled-related protein 1 (FRP, SARP2) 202037_s_at (24 h): 4.4 fold
Fold change Serine/threonine kinase 6 (AIK) 208079_s_at (24 h): −8.3 fold
Fold change Tribbles homolog 3a (TRIB3) 218145_at (24 h): −10.1 fold
Fold change Tumor necrosis factor receptor superfamily, member 6 (TNFRSF6) 215719_x_at (24 h): −4.8 fold
Fold change Tumor necrosis factor receptor superfamily, member 6 (TNFRSF6) 216252_x_at (24 h): −5.6 fold
Fold change Tumor protein p53 (Li-Fraumeni syndrome) 201746_at (24 h): −7.1 fold
Fold change Tumor protein p53 (Li-Fraumeni syndrome) 211300_s_at (24 h): −7.3 fold
Fold change member of the N-myc downregulated gene family (NDRG4) 209159_s_at (24 h): 4.5 fold
NF—Y gene expression in response to LAQ824 treatment (A549 cells, DNA microarray analysis): significantly up-regulated
